Data reported in patent publication US10835611B2, “Neurotherapeutic nanoparticle compositions comprising leukemia inhibitory factor” (Yale University, priority 2012, dated 2020).

Legend:
[1] = system: primary rat E14 VM tissue; experiment: Anti-Thy-1 directed BDNF or 7,8-DHF nanoparticles versus free factor in primary rat E14 VM cultures; type: cell-based; details: 7 days in vitro
Description: To compare the effect of brain-derived neurotrophic factor (BDNF), or the BDNF agonist 7,8-dihydroxy flavone (7,8-DHF), when in a nano-particulate formulation targeted to Thy-1, versus free, primary rat E14 VM tissue was mixed with 100 μl of nanoparticle solution (0.05 mg; 0.1 mg; 1.0 mg nanoparticles/ml), or with free growth factor (10 nM; 100 nM; 1 μM; 10 μM) immediately prior to plating. After first confirming presence of Thy-1 antigen on the surface of TH+ neurons (data not shown), anti-Thy-1 decorated nanoparticles were prepared as either empty; or BDNF-nanoparticles; or 7,8 DHF-nanoparticles. Cultures were fixed after 7 days in vitro and analysed via immunocytochemistry for tyrosine hydroxylase positive cells. […] This is shown for 7,8 DHF-nanoparticles in FIG. 11A and FIG. 11B where the dose-response curve is similar to that reported by Jang et al (Jang et al, Proc. Natl. Acad. Sci. USA, 2010), with the exception of the high dose (10 μM) decline observed here.

[2] = system: E14 VM neural progenitor cells; experiment: E14 VM neurosphere expansion with soluble LIF, subsequent differentiation in monolayer culture; type: cell-based, rat; details: 0.1 ng/ml LIF during neurosphere expansion; monolayer without LIF
Description: To investigate the effect of LIF treatment on the differentiation of E14 VM, tissue was grown as neurospheres in expansion medium with or without 0.1 ng/ml soluble LIF. Primary ventral midbrain tissue was expanded in medium containing the mitogens EGF and FGF-2 for 5 days. These neurospheres were then dissociated into single cells and plated in monolayer culture in the absence of LIF. After 5 days of growth these cultures were analysed via immunocytochemistry for neural and astroglial differentiation (FIGS. 6A and 6B, showing morphology + or − LIF). The presence of LIF during the expansion of E14 VM had no effect on subsequent differentiation (FIG. 7 showing results after 5 and 10 days).

[3] = system: dopaminergic neurons in E14 VM cultures; experiment: LIF treatment during dissociation of E14 VM tissue, TH+ neuron count in monolayer culture; type: cell-based, rat; details: tissue dissociated in 0.1 ng/ml LIF
Description: The VM of E14 rat foetuses was dissected and dissociated in medium with or without 0.1 ng/ml soluble LIF. The tissue was then plated in monolayer culture and grown for 2, 3 or 5 days prior to fixing. Dissociated cells were seeded in monolayer cultures and fixed after 2, 3 or 5 days in vitro (DIV).

[4] = system: dopaminergic neurons in E14 VM cultures; experiment: Dopaminergic apoptosis (TH, cleaved caspase-3, condensed nucleus) in E14 VM monolayer cultures; type: cell-based, rat
Description: A subset of tyrosine hydroxylase neurons co-localised with cleaved caspase-3 and a condensed nucleus, both markers of apoptotic cells. […] Immunocytochemical analysis was performed to determine whether LIF treatment (soluble or targeted nanoparticles) decreased the number of apoptotic dopaminergic neurons in these cultures.
E14 VM monolayer cultures, treated with soluble LIF or LIF/empty nanoparticles were fixed after 2, 3 or 5 days.

[5] = system: dopaminergic neurons in E14 VM cultures; experiment: Growth medium supplemented with soluble LIF, TH+ neuron count in E14 VM cultures; type: cell-based, rat
Description: The VM of E14 rat foetuses was dissected and dissociated in standard conditions. Primary E14 VM tissue was dissociated and grown as monolayer cultures. After plating cells were chronically treated with soluble LIF in their growth medium ranging from 0.1 ng/ml to 100 ng/ml.

| Molecule | longest neurite length [1] | number of primary neurites [1] | serotonergic cells versus dopaminergic cells [1] | subsequent neural and astroglial differentiation [2] | number of TH+ neurons ([3]; 3 and 5 days in vitro) | number of TH+ neurons ([3]; 2 days in vitro) | level of dopaminergic apoptosis ([4]; 2 days in vitro) | dopaminergic apoptosis ([4]; 3 days in vitro) | number of TH positive neurons ([5]; all LIF dosages above 0.1 ng/ml (up to 100 ng/ml)) | number of tyrosine hydroxylase positive neurons ([5]; growth medium with 0.1 ng/ml LIF, 3 and 5 days in vitro) |
| --- | --- | --- | --- | --- | --- | --- | --- | --- | --- | --- |
| O=c1cc(-c2ccccc2)oc2c(O)c(O)ccc12 [7,8-DHF, 7,8-dihydroxy flavone, reference compound] | neither soluble 7,8-DHF nor 7,8-DHF-nano altered | neither soluble 7,8-DHF nor 7,8-DHF-nano altered | constant ratio |  |  |  |  |  |  |  |
| LIF: leukaemia inhibitory factor, member of the IL-6 family of cytokines, used soluble in medium |  |  |  | no effect | effect was lost | significantly more | significant reduction | did not reach statistical significance | no significant effect | significantly increase |
| BDNF: brain-derived neurotrophic factor (protein, UniProt P23560 19-247, looked up) Neurotrophic factor BDNF …: APMKEANIRGQGGLAYPGVRTHGTLESVNGPKAGSRGLTSLADTFEHVIEELLDEDQKVRPNEENNKDADLYTSRVMLSSQVPLEPPLLFLLEEYKNYLDAANMSMRVRRHSDPARRGELSVCDSISEWVTAADKKTAVDMSGGTVTVLEKVPVSKGQLKQYFYETKCNPMGYTKEGCRGIDKRHWNSQCRTTQSYVRALTMDSKKRIGWRFIRIDTSCVCTLTIKRGR | significant increase | significant increase | constant ratio |  |  |  |  |  |  |  |
